Laboratory results taken from patent US7989474B2, “Use of Lck inhibitors for treatment of immunologic diseases” (Boehringer Ingelheim Pharma GmbH & Co. KG, priority 2002, dated 2011).

Target: T1, lck enzyme (Homo sapiens, UniProt P06239)
T1 construct: The lck enzyme comprises the entire lck molecule except the first nine amino acids which are replaced by an His-tag; His-tag (N); made in house
Test: Non-Radioactive Kinase Assay (lck)
Type: biochemical
Settings: mean values of two independent experiments
Description: The lck enzyme comprises the entire lck molecule except the first nine amino acids which are replaced by an His-tag for purification purposes. The enzyme is affinity purified.
The reaction is started by the addition of 50 μl 500 μM ATP (in 10 mM MgAc2) and is performed at room temperature.
The solution is incubated for one hour at room temperature and the supernatant discarded. The well is washed twice with 300 μl PBS.

T1 sequence (P06239 10-509 limits assumed, species assumed): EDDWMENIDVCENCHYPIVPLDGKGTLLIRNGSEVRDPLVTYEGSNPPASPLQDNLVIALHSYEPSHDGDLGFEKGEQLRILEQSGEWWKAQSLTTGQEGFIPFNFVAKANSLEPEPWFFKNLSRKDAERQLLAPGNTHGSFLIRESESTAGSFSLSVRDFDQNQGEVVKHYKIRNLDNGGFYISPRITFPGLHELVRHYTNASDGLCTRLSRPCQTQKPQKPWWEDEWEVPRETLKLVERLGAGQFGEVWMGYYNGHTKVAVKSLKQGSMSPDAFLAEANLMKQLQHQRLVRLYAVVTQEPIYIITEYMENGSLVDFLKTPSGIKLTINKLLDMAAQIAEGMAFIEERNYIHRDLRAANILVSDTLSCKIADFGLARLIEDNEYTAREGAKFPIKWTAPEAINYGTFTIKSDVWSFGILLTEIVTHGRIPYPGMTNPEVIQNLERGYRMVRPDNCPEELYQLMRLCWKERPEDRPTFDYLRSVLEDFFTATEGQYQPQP

- IC50: 36 nM
Structure (SMILES): COC(=O)c1ccc2c(c1)NC(=O)/C2=C(\Nc1ccc(N(C)C(=O)CN(C)C)cc1)c1ccccc1 [(AI), (Z)-3-(1-(4-(N-(dimethylaminomethylcarbonyl)-N-methyl-amino)-phenylamino)-1-phenyl-methylene)-6-methoxycarbonyl-2-indolinone]
